A short description of data set [1]: Clearance in rat at 3 mg/kg, iv. It is filed as ADME, organism-based. Details: dose 3 mg/kg, route intravenous. The settings on record: in vivo.
The next data set has as its system Mus musculus. Nature of the data set: Inhibition of transketolase in BALB/c mouse blood at 100 mg/kg, ip after 72 hrs. It is filed as functional, organism-based. Details: dose 100 mg/kg.
Data set [2] can be described thus: AUC in rat at 3 mg/kg, iv. As to conditions: plasma. It is filed as ADME, organism-based. More on the design: dose 3 mg/kg, route intravenous.
The nature of data set [3]: Mean residence time in rat at 3 mg/kg, iv. It is filed as ADME, organism-based. Details: dose 3 mg/kg, route intravenous. The settings on record: in vivo.
Data set [4] is described as follows: Volume of distribution at steady state in rat at 3 mg/kg, iv. It is filed as ADME, organism-based. More on the design: dose 3 mg/kg, route intravenous. As to conditions: in vivo, read-out: Vdss.
In the next data set the target is T1, Transketolase (Homo sapiens, UniProt P29401).
T1 sequence (P29401 whole entry): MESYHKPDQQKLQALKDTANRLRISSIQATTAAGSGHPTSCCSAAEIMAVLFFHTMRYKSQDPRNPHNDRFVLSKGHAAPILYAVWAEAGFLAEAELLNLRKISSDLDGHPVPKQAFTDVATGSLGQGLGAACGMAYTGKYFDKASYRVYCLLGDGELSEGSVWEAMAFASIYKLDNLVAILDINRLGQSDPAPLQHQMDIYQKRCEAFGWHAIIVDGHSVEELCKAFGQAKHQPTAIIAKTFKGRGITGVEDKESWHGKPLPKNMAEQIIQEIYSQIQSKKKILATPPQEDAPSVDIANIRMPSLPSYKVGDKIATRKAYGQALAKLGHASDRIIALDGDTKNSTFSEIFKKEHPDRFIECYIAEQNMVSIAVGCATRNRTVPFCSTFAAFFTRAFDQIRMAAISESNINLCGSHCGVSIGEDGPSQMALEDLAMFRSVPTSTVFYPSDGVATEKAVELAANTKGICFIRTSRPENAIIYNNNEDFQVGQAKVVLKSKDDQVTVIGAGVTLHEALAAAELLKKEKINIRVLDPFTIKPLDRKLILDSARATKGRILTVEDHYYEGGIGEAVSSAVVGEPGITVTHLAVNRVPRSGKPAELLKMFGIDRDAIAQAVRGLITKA
As to the kind of experiment: Inhibition of transketolase in human HCT116 cells. It is filed as cell-based, HCT-116.

Data set [5] is described as follows: Cmax in rat at 3 mg/kg, iv. It is filed as ADME, organism-based. Details: dose 3 mg/kg, route intravenous. As to conditions: in vivo.

Active and inactive are the calls of the source. The calls are words filed in the database; no cut-off is given here.

Here are results for 17 molecules from ChEMBL document CHEMBL1140822, “Prodrug thiamine analogs as inhibitors of the enzyme transketolase” (Bioorg Med Chem Lett, 2008).

Regarding `C/C(=C(\CCO)SS/C(CCO)=C(/C)N(C=O)Cc1ccc(C)nc1N)N(C=O)Cc1ccc(C)nc1N`, the clearance in data set [1] was 32.5 mL/min/kg. For the same molecule, the result with Mus musculus was Active. The exposure (AUC) in data set [2] was found to be 1590 ng·h/mL. In data set [3], this molecule showed an MRT of 12.7 h. For the same molecule, the Vd in data set [4] is 19.3 L/kg. For the same molecule, at Transketolase, the response was half-maximal at 12 nM (EC50). In data set [5], this molecule had a Cmax of 1120 ng/mL.
Consider `CCCCS/C(CCO)=C(/C)N(C=O)Cc1ccc(C)nc1N`, for which a half-maximal effect on Transketolase (EC50) was put at 6000 nM.
Molecule `C/C(=C(\CCO)SCOC(=O)C(C)(C)C)N(C=O)Cc1ccc(C)nc1N` showed a clearance in data set [1] of 0.63 mL/min/kg. This molecule also had an AUC in data set [2] of 79200 ng·h/mL. This molecule also displayed an MRT in data set [3] of 48.3 h. The Vd in data set [4] is 1.83 L/kg. On Transketolase, the EC50 is 116 nM. This molecule yielded a maximum concentration (Cmax) in data set [5] of 3020 ng/mL.
Molecule `Cc1c(CCO)sc[n+]1Cc1ccc(Cl)nc1N` returned an EC50 at Transketolase of 9 nM.
Still for that read-out and setting: the figure for `C/C(=C(\CCO)SS/C(CCO)=C(/C)N(C=O)Cc1ccc(Cl)nc1N)N(C=O)Cc1ccc(Cl)nc1N` is 8 nM; for `CC(=O)N(Cc1ccc(C)nc1N)/C(C)=C(/CCO)SS/C(CCO)=C(/C)N(Cc1ccc(C)nc1N)C(C)=O` it is 32 nM.
Molecule `Cc1ccc(C[n+]2csc(CCO)c2C)c(N)n1.[Cl-]` came in with a clearance in data set [1] of 41.3 mL/min/kg. Besides, the AUC in data set [2] stood at 1250 ng·h/mL. The molecule further had an MRT in data set [3] of 0.72 h. Besides, the Vd in data set [4] was determined as 1.98 L/kg. A half-maximal response on Transketolase (EC50) required 18 nM. For the same molecule, the Cmax in data set [5] turned out to be 6610 ng/mL.
For the molecule `Cc1ccc(C[n+]2csc(CCO)c2)c(N)n1`, the EC50 at Transketolase stood at 9540 nM.
For `C/C(=C1\CCOC(=O)S1)N(C=O)Cc1ccc(C)nc1N`, the concentration for a half-maximal effect (EC50) on Transketolase was determined as 15 nM.
`CC(=O)OCC/C(SC(C)=O)=C(\C)N(C=O)Cc1ccc(C)nc1N` had an EC50 on Transketolase of 8 nM.
Same read-out and setting: the figure for `Cc1ccc(C[n+]2c(C)sc(CCO)c2C)c(N)n1` is 28 nM; for `C/C(=C(\CCO)SSCCO)N(C=O)Cc1ccc(C)nc1N` it is 13 nM; for `Cc1c(CCO)sc[n+]1Cc1cccnc1N` it is 110 nM.
On the same count and under the same terms, the figure for `C/C(=C(\CCO)SSCCC(=O)O)N(C=O)Cc1ccc(C)nc1N` is 52 nM; for `C/C(=C(\CCOC(=O)c1ccccc1)SC(=O)c1ccccc1)N(C=O)Cc1ccc(C)nc1N` it is 28 nM; for `C/C(=C(\CCO)SS/C(CCO)=C(/C)N(C=O)Cc1cccnc1N)N(C=O)Cc1cccnc1N` it is 479 nM.
On to `Cc1ccc(CN(C=O)/C=C(/CCO)SS/C(=C\N(C=O)Cc2ccc(C)nc2N)CCO)c(N)n1`, for which, at Transketolase, the EC50 worked out at 102000 nM.
